Assays:
S. pyogenes C 203 = test: in vivo activity in mice infected with S. pyogenes
E. coli SKF 12140 = test: in vitro antibacterial activity, MIC; type: cell-based; conditions: inoculum about 10^4 CFU/ml, 18-24 h at 37° C.
Procedure: (§1) ISOSENSITEST broth, culture medium (Oxoid) and Todd-Hewitt broth, culture medium (Difco) are used for growing staphylococci and streptococci, respectively. Broth cultures are diluted so that the final inoculum is about 10^4 colony forming units/ml (CFU/ml).

[1] = system: Proteus vulgaris X 19H ATCC 881; test: in vitro antibacterial activity, MIC; type: cell-based; conditions: inoculum about 10^4 CFU/ml, 18-24 h at 37° C.
Procedure: as §1

[2] = system: Pseudomonas aeruginosa ATCC 10145; test: in vitro antibacterial activity, MIC; type: cell-based; conditions: inoculum about 10^4 CFU/ml, 18-24 h at 37° C.
Procedure: as §1

Staph. aureus Tour = test: in vitro antibacterial activity, MIC; type: cell-based; conditions: inoculum about 10^4 CFU/ml, 18-24 h at 37° C.
Procedure: as §1

[3] = system: Staph. epidermidis ATCC 12228; test: in vitro antibacterial activity, MIC; type: cell-based; conditions: inoculum about 10^4 CFU/ml, 18-24 h at 37° C.
Procedure: as §1

Staph. haemoliticus 602 = test: in vitro antibacterial activity, MIC; type: cell-based; conditions: inoculum about 10^4 CFU/ml, 18-24 h at 37° C.
Procedure: as §1

[4] = system: Strepto. faecalis ATCC 7080; test: in vitro antibacterial activity, MIC; type: cell-based; conditions: inoculum about 10^4 CFU/ml, 18-24 h at 37° C.
Procedure: as §1

[5] = system: Strepto. pneumoniae UC 41; test: in vitro antibacterial activity, MIC; type: cell-based; conditions: inoculum about 10^4 CFU/ml, 18-24 h at 37° C.
Procedure: as §1

Strepto. pyogenes C 203 = test: in vitro antibacterial activity, MIC; type: cell-based; conditions: inoculum about 10^4 CFU/ml, 18-24 h at 37° C.
Procedure: as §1

| MIC (E. coli SKF 12140) | MIC [1] | MIC [2] | MIC (Staph. aureus Tour) | MIC [3] | MIC (Staph. haemoliticus 602) | MIC [4] | MIC [5] | MIC (Strepto. pyogenes C 203) | Structure (SMILES) | ED50 (S. pyogenes C 203; route of administration p.o.) | ED50 (S. pyogenes C 203; route of administration s.c) |
| --- | --- | --- | --- | --- | --- | --- | --- | --- | --- | --- | --- |
|  |  |  |  |  |  |  |  |  | CCCCC(NC(=O)C1NC(=O)C2NC(=O)C(NC(=O)C3NC(=O)C4NC(=O)C(Cc5ccc(c(Cl)c5)Oc5cc3cc(c5O)Oc3ccc(cc3Cl)C2O)NC(=O)C(NC(=O)OC(C)(C)C)c2ccc(O)c(c2)Oc2cc(O)cc4c2)c2ccc(O)c(c2)-c2c(O)cc(O)cc21)C(=O)NCCS (centres unmarked) [Compound 20] | > 300 mg/kg | 8.70 mg/kg |
| > 128 mg/L | > 128 mg/L | > 128 mg/L | 0.12 mg/L | 0.06 mg/L | 0.12 mg/L | 0.12 mg/L | 0.12 mg/L | 0.12 mg/L | Cl.NC1C(=O)NC2Cc3ccc(c(Cl)c3)Oc3cc4cc(c3O)Oc3ccc(cc3Cl)C(O)C3NC(=O)C(NC(=O)C4NC(=O)C(NC2=O)c2cc(O)cc(c2)Oc2cc1ccc2O)c1ccc(O)c(c1)-c1c(O)cc(O)cc1C(C(=O)NC(CCC(=O)N1CCSCC1)C(=O)N1CCSCC1)NC3=O (centres unmarked) [Compound 22] |  |  |
